Where two headings read alike, the source gives them in different places.
Assays:
PDE4B2 = target: T1, PDE4B2 (Homo sapiens, UniProt Q07343); experiment: Effect of compounds on PDE4B2 activity (fluorescence polarization kit); type: biochemical
T1 construct: purchased BPS Bioscience 60343
Protocol: The effect of compounds on PDE4B2 activity was detected by a fluorescence polarization kit (BPS Bioscience, Catalog #60343). According to the instructions of the kit, FAM-Cyclic-3′,5′-AMP at a final concentration of […], 1 ng/well of PDE4B2 (PDE buffer was added to the negative control well), and a compound diluted in a gradient manner (PDE buffer containing 10% DMSO was added to the positive control well) were added to each well, fully mixed, and then reacted at room temperature for 1 h. The Binding Agent was diluted with the Binding Agent Diluent (cAMP) at a ratio of 1:100 for later use, the Binding Agent dilution was taken and added to the test plate at 50 μl/well and incubated at room temperature with slow shaking for 20 minutes. After the incubation was complete, Envision was used for FP detection, with Excitation at 480 nm and Emission at 535 nm. FP was usually represented by mP value.
[formula] • I∥ (S535): fluorescence intensity in parallel direction • I⊥ (P535): fluorescence intensity in perpendicular direction • G: G factor=1
(§1) [formula] • mP(sample): mP of the test compound in a reaction well • mP(negative control): mP in the negative control well • mP(positive control): mP in the positive control well
(§2) According to the calculated inhibition rate at each concentration, the IC50 value of each compound was calculated by GraphPad Prism 8 software.

PDE4D2 = target: T2, PDE4D2 (Homo sapiens, UniProt Q08499); experiment: Effect of compounds on PDE4D2 activity (fluorescence polarization kit); type: biochemical; details: class symbols
T2 construct: purchased BPS Bioscience 60345
Protocol: The effect of compounds on PDE4D2 activity was detected by a fluorescence polarization kit (BPS Bioscience, Catalog #60345). During the reaction, 12.5 μL of 0.272 ng/well of an enzyme (final concentration: 0.068 ng/well) and 12.5 μL of the compound diluted in a gradient manner (DMSO concentration: 4%) were first pre-incubated at room temperature for 15 minutes, the same volume of the enzyme at the same concentration and 12.5 μL of PDE buffer containing 4% DMSO were added to the positive control well, and 25 μL of PDE buffer containing 2% DMSO was added to the negative control well. After completion, 25 μL of […] FAM-Cyclic-3′,5′-AMP (final concentration: […]) was added to each well, fully mixed, and then incubated at room temperature with slow shaking for 30 minutes. The Binding Agent was diluted with the Binding Agent Diluent (cAMP) at a ratio of 1:100 for later use, 100 μl/well of the Binding Agent dilution was taken and added to all wells of the test plate and incubated at room temperature with slow shaking for 1 hour.
After the incubation was complete, BMG LRBTECH microplate reader was used for FP detection, with Excitation at 485 nm and Emission at 520 nm. FP was usually represented by mP value.
[formula] • I∥ (S520): fluorescence intensity in parallel direction • I⊥ (P520): fluorescence intensity in perpendicular direction • G: G factor=1
as §1, §2

[1] = Pharmacokinetic test in mice; type: in vivo, ICR mice; details: for AUC(0-t) / clearance / half-life / Vd: male, ICR, mouse, plasma; for Vd: read-out: Vdss
Protocol: 5.1 Experimental animals: Male ICR mice, 20-25 g, 6 mice/compound. Purchased from Chengdu Ddossy Experimental Animals Co., Ltd.
5.2 Experimental design: On the day of the experiment, 42 ICR mice were randomly grouped according to their body weights. The animals were fasted with water available for 12-14 h one day before administration and fed 4 h after administration.
Before and after administration, 0.06 mL of blood was taken from the orbit under isoflurane anesthesia and placed in an EDTAK2 centrifuge tube for centrifugation at 5000 rpm at 4-C for 10 min, followed by plasma collection. The blood collection time points for the intravenous group and intragastric group were both 0 m, 5 mi, 15 mi, 30 mi, 1 h, 2 h, 4 h, 6 h, 8 h, and 24 h. Before analysis and detection, all the samples were stored at −80° C., and the samples were subjected to quantitative analysis using LC-MS/MS.

[2] = Pharmacokinetic test in beagle dogs; type: in vivo
Protocol: 6.1 Experimental animals: male beagle dogs, about 8-11 kg, 6 beagle dogs/compound, purchased from Beijing Marshall Biotechnology Co., Ltd.
6.2 Experimental method: On the day of the experiment, 18 beagle dogs were randomly grouped according to their body weights. The animals were fasted with water available for 12-14 h one day before administration and fed 4 h after administration. Administration was carried out according to Table 8.
Before and after administration, 1 ml of blood was taken from the jugular vein or limb vein and placed in an EDTAK2 centrifuge tube. Centrifugation was carried out at 5000 rpm at 4° C. for 10 min, and plasma was collected. The blood collection time points for the intravenous group and intragastric group were both 0 min, 5 min, 15 min, 30 min, 1 h, 2 h, 4 h, 6 h, 8 h, 10 h, 12 h, 24 h, 48 h, and 72 h. Before analysis and detection, all the samples were stored at −80° C., and the samples were subjected to quantitative analysis using LC-MS/MS.

PDE4B1 = target: T3, PDE4B1 (Homo sapiens, UniProt Q07343); experiment: Effect of compounds on PDE4B1 activity (IMAP fluorescence polarization kit); type: biochemical; details: class symbols
T3 construct: purchased BPS 60041
Protocol: The IMAP Reaction Buffer containing 0.1% BSA (5×) in the kit was diluted into a 1-fold reaction buffer containing 1 mM DTT. 0.12 nM PDE4B1 (BPS, Cat #60041) was added to the 1-fold reaction buffer to form a 2-fold enzyme solution. 10 μL of the 2-fold enzyme solution was added to wells of a 384-well reaction plate. For the negative control well, 10 μL of the 1-fold reaction buffer was used instead of the enzyme solution. Centrifugation at 1000 rpm for 1 minute and incubation at room temperature for 15 minutes were carried out. 0.2 uM FAM-labeled cAMP (FAM-cAMP, Molecular Device, Cat #R7506) was added to the 1-fold reaction buffer to form a 2-fold substrate solution. 10 μL of the 2-fold substrate solution was added to each well of the 384-well reaction plate. Centrifugation at 1000 rpm for 1 minute was carried out. A reaction was carried out at room temperature for 20 minutes. IMAP Progressive Binding Buffer A (5×), IMAP Progressive Binding Buffer B (5×), and IMAP Progressive Binding Reagent (provided by IMAP FP IPP Explorer Kit) were prepared into a reaction stop solution according to the instructions for use. 60 μL of an […] reaction stop solution was added to each well of the 384-well reaction plate to stop the reaction, and the reaction product was centrifuged at 1000 rpm for 1 minute. Incubation at room temperature in the dark for 60 minutes was carried out. The mP values (Ex480/Em535 (s), Em535 (p)) were read by a microplate reader (Envision).
FP was usually represented by mP value. mP value for FP measurement=1000*(S−G*P)/(S+G*P) • S: fluorescence intensity in parallel direction • P: fluorescence intensity in perpendicular direction • G: G factor=1
as §1
According to the calculated inhibition rate at each concentration, the IC50 value of each compound was calculated by XLFit excel add-in version 5.4.0.8 software.
Y=Bottom+(Top−Bottom)/(1+(IC50/X)^HillSlope) Fitting formula: […]

[3] = Inhibition of LPS-induced TNF-α release from human peripheral blood mononuclear cells in vitro; type: cell-based; details: PBMC, hPBMC, 100 ng/mL LPS, 4 h
Protocol: Normal human peripheral blood which was anticoagulated (citric acid anticoagulation) was collected, and hPBMCs were prepared by Ficoll-Paque PLUS (Cytiva, Cat #17144002, density 1.077 g/mL). The concentration of hPBMC cells was adjusted to 0.25×10^6 cells/mL with RPMI1640 medium and inoculated into a 96-well plate in an amount of 50000 cells per well. Subsequently, different concentrations of drugs were added for pre-incubation for 1 h (the DMSO final concentration was 0.1%, and the positive and negative control wells had the same volume of RPMI1640 containing 0.1% DMSO). After the pre-incubation was complete, 100 ng/mL LPS (SIGMA, L2630) was added to the compound and positive control wells, and the negative control well had the same volume of RPMI1640 containing 0.1% DMSO. Incubation was carried out for 4 h in an incubator at 37° C. and 5% CO2. The cell supernatant was collected, and the content of TNF-α in the supernatant sample was detected by human TNF-α Elisa quantitative test kit (Sino Biological, Cat #KIT10602). The IC50 value was calculated using GraphPad Prism software.

[4] = class symbols, read-out: PDE4B2 IC50
[5] = male, dog, iv, plasma, i.v. (1 mg/kg)
[6] = male, dog, po, plasma, i.g. (5 mg/kg)

T1 sequence (Q07343 1-564 isoform Q07343-2): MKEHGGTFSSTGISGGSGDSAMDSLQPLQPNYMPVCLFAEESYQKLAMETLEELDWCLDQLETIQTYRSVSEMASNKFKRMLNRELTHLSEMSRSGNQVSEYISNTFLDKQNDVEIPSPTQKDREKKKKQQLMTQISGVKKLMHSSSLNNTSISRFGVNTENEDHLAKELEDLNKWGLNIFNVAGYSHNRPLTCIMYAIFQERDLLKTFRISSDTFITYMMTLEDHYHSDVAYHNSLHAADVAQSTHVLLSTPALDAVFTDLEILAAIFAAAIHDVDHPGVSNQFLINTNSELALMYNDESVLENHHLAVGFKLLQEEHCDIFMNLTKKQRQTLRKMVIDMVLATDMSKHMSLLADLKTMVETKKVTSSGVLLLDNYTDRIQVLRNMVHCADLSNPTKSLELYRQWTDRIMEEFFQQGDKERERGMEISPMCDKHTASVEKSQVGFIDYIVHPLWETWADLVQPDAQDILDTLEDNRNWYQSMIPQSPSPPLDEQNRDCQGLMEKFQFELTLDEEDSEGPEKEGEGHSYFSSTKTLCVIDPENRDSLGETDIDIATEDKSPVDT
T3 sequence (Q07343 whole entry): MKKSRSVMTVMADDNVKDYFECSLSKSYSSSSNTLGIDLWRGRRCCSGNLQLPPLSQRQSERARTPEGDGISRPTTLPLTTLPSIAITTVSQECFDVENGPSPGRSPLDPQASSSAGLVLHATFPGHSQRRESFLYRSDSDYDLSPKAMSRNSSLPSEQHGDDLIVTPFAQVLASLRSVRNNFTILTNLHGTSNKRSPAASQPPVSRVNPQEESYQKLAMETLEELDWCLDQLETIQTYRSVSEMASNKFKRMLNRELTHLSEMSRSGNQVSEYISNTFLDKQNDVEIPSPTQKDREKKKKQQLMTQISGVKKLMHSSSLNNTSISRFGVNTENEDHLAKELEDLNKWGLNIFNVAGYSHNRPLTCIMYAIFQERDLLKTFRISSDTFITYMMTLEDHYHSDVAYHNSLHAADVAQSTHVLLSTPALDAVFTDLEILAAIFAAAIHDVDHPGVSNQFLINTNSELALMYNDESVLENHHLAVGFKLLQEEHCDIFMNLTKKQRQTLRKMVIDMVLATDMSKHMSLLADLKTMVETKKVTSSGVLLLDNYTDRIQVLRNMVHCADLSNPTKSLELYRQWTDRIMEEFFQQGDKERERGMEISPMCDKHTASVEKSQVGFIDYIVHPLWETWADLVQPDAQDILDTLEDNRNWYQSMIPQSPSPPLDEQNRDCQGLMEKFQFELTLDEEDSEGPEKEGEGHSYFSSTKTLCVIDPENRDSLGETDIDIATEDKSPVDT
T2 sequence (Q08499 303-809): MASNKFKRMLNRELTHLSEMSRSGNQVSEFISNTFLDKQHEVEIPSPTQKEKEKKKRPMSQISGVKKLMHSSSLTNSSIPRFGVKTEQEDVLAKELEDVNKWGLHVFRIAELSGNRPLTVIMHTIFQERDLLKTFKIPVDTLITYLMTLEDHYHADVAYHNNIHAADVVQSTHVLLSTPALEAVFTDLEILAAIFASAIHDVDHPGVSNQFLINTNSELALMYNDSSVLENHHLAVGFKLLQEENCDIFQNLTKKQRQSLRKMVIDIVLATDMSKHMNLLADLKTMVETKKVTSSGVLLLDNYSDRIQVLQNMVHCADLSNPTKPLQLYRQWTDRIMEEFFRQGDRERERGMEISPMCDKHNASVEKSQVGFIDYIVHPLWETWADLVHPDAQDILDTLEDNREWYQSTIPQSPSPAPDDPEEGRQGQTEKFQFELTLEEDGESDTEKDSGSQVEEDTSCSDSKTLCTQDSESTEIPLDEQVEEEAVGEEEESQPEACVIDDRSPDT

| IC50 (PDE4B2; [4]) [nM] | IC50 (PDE4D2) [nM] | IC50 (PDE4B1) [nM] | SMILES | further results |
| --- | --- | --- | --- | --- |
| 10 to 50 | < 10 | < 10 | [O-][S+]1CCc2nc(N3CC4C(C3)C4c3ccc(Cl)cc3)nc(NC3(CO)CCC3)c21 (stereo not drawn) [Compound 20] | – |
| 10 to 50 | 10 to 50 | 10 to 50 | [O-][S@+]1CCc2nc(N3C[C@H]4CC[C@@H](C3)[C@@H]4c3ccc(Cl)cc3)nc(NC3(CO)CCC3)c21 [Compound 22] | – |
| 10 to 50 | < 10 | < 10 | [O-][S@+]1CCc2nc(N3C[C@H]4CN(c5ncc(Cl)cn5)C[C@H]4C3)nc(NC3(CO)CCC3)c21 [Compound 25] | – |
| – | < 10 | < 10 | [O-][S@+]1CCc2nc(N3CC=C(c4ccc5c(c4)CC5)CC3)nc(NC3(CO)CCC3)c21 [Compound 26] | – |
| – | < 10 | < 10 | [O-][S+]1CCc2nc(N3CCC4=C(COc5cc(Cl)ccc54)C3)nc(NC3(CO)CCC3)c21 (stereo not drawn) [Compound 29] | – |
| – | < 10 | < 10 | [O-][S+]1CCc2nc(N3CC=C(c4c(F)cc(Cl)cc4F)CC3)nc(NC3(CO)CCC3)c21 (stereo not drawn) [Compound 35] | – |

Second part, the compound before the results:

| SMILES | IC50 (PDE4B2; [4]) [nM] | IC50 (PDE4D2) [nM] | IC50 (PDE4B1) [nM] | further results |
| --- | --- | --- | --- | --- |
| [O-][S@+]1CCc2nc(N3CCC=C(c4ccc(Cl)cc4)CC3)nc(NC3(CO)CCC3)c21 [Compound 5] | < 10 | < 10 | – | IC50 (PDE4B2; values in text, read-out: IC50 against PDE4B2): 8.1 nM; F ([1]; i.g. (10 mg/kg)): 91.9 ± 7.5%; AUC(0-t) ([1]; iv, i.v. (5 mg/kg)): 7400 ± 1110 ng·h/mL; clearance ([1]; iv, i.v. (5 mg/kg)): 5.71 ± 0.86 mL/min/kg; half-life ([1]; iv, i.v. (5 mg/kg)): 2.72 ± 0.23 h; Vd ([1]; iv, i.v. (5 mg/kg)): 1.31 ± 0.12 L/kg; AUC(0-t) ([1]; po, i.g. (10 mg/kg)): 27200 ± 2230 ng·h/mL; half-life ([1]; po, i.g. (10 mg/kg)): 3.42 ± 0.16 h; F ([2]; i.g. (5 mg/kg)): ≥98%; AUC(0-t) [2, 5]: 1200 ± 210 ng·h/mL; clearance [2, 5]: 13.8 ± 2.3 mL/min/kg; half-life [2, 5]: 3.91 ± 0.037 h; Vd ([2]; male, dog, iv, plasma, i.v. (1 mg/kg), read-out: Vdss): 4.16 ± 0.76 L/kg; AUC(0-t) [2, 6]: 5020 ± 1700 ng·h/mL; half-life [2, 6]: 6.32 ± 2.1 h |
| [O-][S@+]1CCc2nc(N3CCC=C(c4ccc5c(c4)CC5)CC3)nc(NC3(CO)CCC3)c21 [Compound 27] | – | < 10 | < 10 | – |
| [O-][S@+]1CCc2nc(N3CC=C(c4ncc(Cl)cn4)CC3)nc(NC3(CO)CCC3)c21 [Compound 28] | – | < 10 | < 10 | F ([1]; i.g. (10 mg/kg)): 71.4 ± 11%; AUC(0-t) ([1]; iv, i.v. (5 mg/kg)): 9210 ± 2070 ng·h/mL; clearance ([1]; iv, i.v. (5 mg/kg)): 4.67 ± 1.2 mL/min/kg; half-life ([1]; iv, i.v. (5 mg/kg)): 3.59 ± 0.19 h; Vd ([1]; iv, i.v. (5 mg/kg)): 1.31 ± 0.28 L/kg; AUC(0-t) ([1]; po, i.g. (10 mg/kg)): 26300 ± 4150 ng·h/mL; half-life ([1]; po, i.g. (10 mg/kg)): 7.04 ± 1.8 h |
| CC1=C(c2ccc(Cl)cc2)CCN(c2nc3c(c(NC4(CO)CCC4)n2)[S+]([O-])CC3)C1 (stereo not drawn) [Compound 36] | – | – | < 10 | – |
| [O-][S@+]1CCc2nc(N3CC=C(c4ccc(Cl)c5c4CC5)CC3)nc(NC3(CO)CCC3)c21 [Compound 83] | < 10 | < 10 | – | IC50 ([3]; class symbols, read-out: Re IC50 (nM) (relative IC50), TNF-α induced by LPS): < 10 nM; Emax ([3]; read-out: Max inhibition (%)): 77.7% |

From US20250326765A1, “PDE4B INHIBITOR AND USE THEREOF” (XIZANG HAISCO PHARMACEUTICAL CO., LTD., priority 2022, published 2025)
